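GI50 is the concentration that inhibits growth by half. TGI marks complete inhibition of growth.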
Legend:
Experiment in all cases: DTP human tumour cell line panel, 384-well format; in the data active means GI50 below about 0.43 µM; inactive means the rest
786-0 renal = tested on: 786-0 renal
A498 renal = tested on: A498 renal
A549 NSCLC = tested on: A549 NSCLC
ACHN renal = tested on: ACHN renal
BT-549 breast = tested on: BT-549 breast
CAKI-1 renal = tested on: CAKI-1 renal
CCRF-CEM leukemia = tested on: CCRF-CEM leukemia
COLO 205 colon = tested on: COLO 205 colon
DU-145 prostate = tested on: DU-145 prostate
EKVX NSCLC = tested on: EKVX NSCLC
HCC-2998 colon = tested on: HCC-2998 colon
HCT-116 colon = tested on: HCT-116 colon
HCT-15 colon = tested on: HCT-15 colon
HL-60(TB) leukemia = tested on: HL-60(TB) leukemia
HOP-62 NSCLC = tested on: HOP-62 NSCLC
HOP-92 NSCLC = tested on: HOP-92 NSCLC
HS 578T breast = tested on: HS 578T breast
HT29 colon = tested on: HT29 colon
IGROV1 ovarian = tested on: IGROV1 ovarian
KM12 colon = tested on: KM12 colon
LOX IMVI melanoma = tested on: LOX IMVI melanoma
M14 melanoma = tested on: M14 melanoma
MALME-3M melanoma = tested on: MALME-3M melanoma
MCF7 breast = tested on: MCF7 breast
MDA-MB-231 breast = tested on: MDA-MB-231 breast
MDA-MB-435 melanoma = tested on: MDA-MB-435 melanoma
MDA-MB-468 breast = tested on: MDA-MB-468 breast
MOLT-4 leukemia = tested on: MOLT-4 leukemia
NCI-H226 lung = tested on: NCI-H226 lung
NCI-H23 lung = tested on: NCI-H23 lung
NCI-H322M lung = tested on: NCI-H322M lung
NCI-H460 NSCLC = tested on: NCI-H460 NSCLC
NCI-H522 lung = tested on: NCI-H522 lung
NCI/ADR-RES ovarian = tested on: NCI/ADR-RES ovarian
OVCAR-3 ovarian = tested on: OVCAR-3 ovarian
OVCAR-4 ovarian = tested on: OVCAR-4 ovarian
OVCAR-5 ovarian = tested on: OVCAR-5 ovarian
OVCAR-8 ovarian = tested on: OVCAR-8 ovarian
PC-3 prostate = tested on: PC-3 prostate
RPMI-8226 leukemia = tested on: RPMI-8226 leukemia
RXF 393 renal = tested on: RXF 393 renal
SF-268 CNS = tested on: SF-268 CNS
SF-295 CNS = tested on: SF-295 CNS
SF-539 CNS = tested on: SF-539 CNS
SK-MEL-28 melanoma = tested on: SK-MEL-28 melanoma
SK-MEL-5 melanoma = tested on: SK-MEL-5 melanoma
SK-OV-3 ovarian = tested on: SK-OV-3 ovarian
SN12C renal = tested on: SN12C renal
SNB-19 CNS = tested on: SNB-19 CNS
SNB-75 CNS = tested on: SNB-75 CNS
SR leukemia = tested on: SR leukemia
SW-620 colon = tested on: SW-620 colon
T-47D breast = tested on: T-47D breast
TK-10 renal = tested on: TK-10 renal
U251 glioblastoma = tested on: U251 glioblastoma
UACC-257 melanoma = tested on: UACC-257 melanoma
UACC-62 melanoma = tested on: UACC-62 melanoma
UO-31 renal = tested on: UO-31 renal

C[C@H](Nc1ncnc2nc[nH]c12)c1cc2cccc(Cl)c2c(=O)n1-c1ccccc1
inactive: GI50 (786-0 renal) 2.8 µM | GI50 (A498 renal) 1.09 µM | GI50 (A549 NSCLC) 14.5 µM | GI50 (ACHN renal) 16.8 µM | GI50 (BT-549 breast) 1.29 µM | GI50 (CAKI-1 renal) 4.09 µM | GI50 (CCRF-CEM leukemia) 4.6 µM | GI50 (COLO 205 colon) 42.8 µM | GI50 (DU-145 prostate) 24.6 µM | GI50 (EKVX NSCLC) 15.2 µM | GI50 (HCC-2998 colon) 29.7 µM | GI50 (HCT-116 colon) 28.7 µM | GI50 (HCT-15 colon) 35.2 µM | GI50 (HL-60(TB) leukemia) 3.53 µM | GI50 (HOP-62 NSCLC) 30.7 µM | GI50 (HOP-92 NSCLC) 2.31 µM | GI50 (HS 578T breast) 3.41 µM | GI50 (HT29 colon) 18.8 µM | GI50 (IGROV1 ovarian) 2.43 µM | GI50 (KM12 colon) 43.2 µM | GI50 (LOX IMVI melanoma) 32.5 µM | GI50 (M14 melanoma) 23.9 µM | GI50 (MALME-3M melanoma) 6.18 µM | GI50 (MCF7 breast) 4.31 µM | GI50 (MDA-MB-231 breast) 25.5 µM | GI50 (MDA-MB-435 melanoma) > 100 µM | GI50 (MDA-MB-468 breast) 1.23 µM | GI50 (MOLT-4 leukemia) 2.37 µM | GI50 (NCI-H226 lung) 33.4 µM | GI50 (NCI-H23 lung) 25.9 µM | GI50 (NCI-H322M lung) 15.5 µM | GI50 (NCI-H460 NSCLC) 15.9 µM | GI50 (NCI-H522 lung) 16.8 µM | GI50 (NCI/ADR-RES ovarian) > 100 µM | GI50 (OVCAR-3 ovarian) 3.65 µM | GI50 (OVCAR-4 ovarian) 11.4 µM | GI50 (OVCAR-5 ovarian) 32.9 µM | GI50 (OVCAR-8 ovarian) 25.8 µM | GI50 (PC-3 prostate) 1.46 µM | GI50 (RPMI-8226 leukemia) 25.2 µM | GI50 (SF-268 CNS) 24.7 µM | GI50 (SF-295 CNS) 4.95 µM | GI50 (SF-539 CNS) 19.7 µM | GI50 (SK-MEL-28 melanoma) 8.44 µM | GI50 (SK-MEL-5 melanoma) 18.2 µM | GI50 (SK-OV-3 ovarian) 14.3 µM | GI50 (SN12C renal) 3.25 µM | GI50 (SNB-19 CNS) 44.5 µM | GI50 (SR leukemia) 14 µM | GI50 (SW-620 colon) > 100 µM | GI50 (T-47D breast) 1.6 µM | GI50 (TK-10 renal) 15 µM | GI50 (U251 glioblastoma) 47.3 µM | GI50 (UACC-257 melanoma) 27 µM | GI50 (UACC-62 melanoma) 5.86 µM | GI50 (UO-31 renal) 3.89 µM
> 84.7 µM: TGI (SF-268 CNS)
27.7 µM: TGI (HS 578T breast)
12.5 µM: TGI (MOLT-4 leukemia)
90.6 µM: TGI (OVCAR-4 ovarian)
> 72 µM: TGI (NCI-H322M lung)
2.41 µM: TGI (SNB-75 CNS)
17.6 µM: TGI (T-47D breast)
36.6 µM: TGI (BT-549 breast)
> 80 µM: TGI (CAKI-1 renal)
10.2 µM: TGI (IGROV1 ovarian)
> 83.3 µM: TGI (NCI-H522 lung)
1.3 µM: TGI (RXF 393 renal)
> 48.4 µM: TGI (OVCAR-3 ovarian)
77.7 µM: TGI (HOP-92 NSCLC)
92.1 µM: TGI (HCC-2998 colon)
40.1 µM: TGI (SR leukemia)
98.8 µM: TGI (SK-MEL-28 melanoma)
> 100 µM: TGI (ACHN renal) | TGI (COLO 205 colon) | TGI (DU-145 prostate) | TGI (EKVX NSCLC) | TGI (HCT-116 colon) | TGI (HCT-15 colon) | TGI (HOP-62 NSCLC) | TGI (HT29 colon) | TGI (KM12 colon) | TGI (LOX IMVI melanoma) | TGI (M14 melanoma) | TGI (MCF7 breast) | TGI (MDA-MB-231 breast) | TGI (MDA-MB-435 melanoma) | TGI (NCI-H226 lung) | TGI (NCI-H23 lung) | TGI (NCI-H460 NSCLC) | TGI (NCI/ADR-RES ovarian) | TGI (OVCAR-5 ovarian) | TGI (OVCAR-8 ovarian) | TGI (SF-539 CNS) | TGI (SN12C renal) | TGI (SNB-19 CNS) | TGI (SW-620 colon) | TGI (TK-10 renal) | TGI (U251 glioblastoma) | TGI (UACC-257 melanoma)
> 90.4 µM: TGI (A549 NSCLC)
14.9 µM: TGI (MDA-MB-468 breast)
12.8 µM: TGI (A498 renal)
> 64.2 µM: TGI (UACC-62 melanoma)
active: GI50 (RXF 393 renal) 0.104 µM | GI50 (SNB-75 CNS) 0.103 µM
> 85.1 µM: TGI (SK-MEL-5 melanoma)
> 64.9 µM: TGI (786-0 renal)
> 79.2 µM: TGI (SK-OV-3 ovarian)
> 79.5 µM: TGI (PC-3 prostate)
49.8 µM: TGI (MALME-3M melanoma)
> 93.1 µM: TGI (UO-31 renal)
> 78.7 µM: TGI (RPMI-8226 leukemia)
90.7 µM: TGI (CCRF-CEM leukemia)
> 36.4 µM: TGI (HL-60(TB) leukemia)
> 40.2 µM: TGI (SF-295 CNS)
